Data as given in ChEMBL document CHEMBL4673240, “Euphnerins A and B, Diterpenoids with a 5/6/6 Rearranged Spirocyclic Carbon Skeleton from the Stems of Euphorbia neriifolia” (J Nat Prod, 2020).

Test: Inhibition of LPS-induced NO production in mouse BV-2 cells
Type: functional, cell-based

Compound | IC50 [µM]
CSC(=N)N | 2
C=C[C@@]1(C)CC[C@]2(C)C(=O)[C@@]3(CC[C@H]2C1)[C@H](O)CCC3(C)C | > 30
C=C[C@@]1(C)CC[C@]2(C)C(=O)[C@@]3(CC[C@H]2C1)[C@H](O)C[C@@H](O)C3(C)C | 22.4
